Reference: PubChem BioAssay (NCI)
“And” between values parts separate entries of the source, which are not always exact repeats. Identical values can stand only once.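 48-hour exposure; five concentrations; linearly interpolated endpoints. Here, GI50 denotes the concentration required for 50% inhibition of growth. Definition used: TGI = concentration required for complete inhibition of growth.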

What was measured:
Assay in all cases: NCI anticancer screen, dose series, 48 h
RXF 393 renal = system: RXF 393 renal
RPMI-8226 leukemia = system: RPMI-8226 leukemia
UO-31 renal = system: UO-31 renal
SK-MEL-28 melanoma = system: SK-MEL-28 melanoma
SNB-19 CNS = system: SNB-19 CNS
SNB-75 CNS = system: SNB-75 CNS
NCI-H23 lung = system: NCI-H23 lung
NCI-H460 lung = system: NCI-H460 lung
OVCAR-8 ovarian = system: OVCAR-8 ovarian
HT29 colon = system: HT29 colon
OVCAR-3 ovarian = system: OVCAR-3 ovarian
A549 NSCLC = system: A549 NSCLC
K-562 leukemia = system: K-562 leukemia
UACC-62 melanoma = system: UACC-62 melanoma
PC-3 prostate = system: PC-3 prostate
HCT-15 colon = system: HCT-15 colon
U251 CNS = system: U251 CNS
DU-145 prostate = system: DU-145 prostate
T-47D breast = system: T-47D breast
NCI-H226 lung = system: NCI-H226 lung
786-0 renal = system: 786-0 renal
NCI-H522 lung = system: NCI-H522 lung
SK-MEL-2 melanoma = system: SK-MEL-2 melanoma
BT-549 breast = system: BT-549 breast
HOP-92 NSCLC = system: HOP-92 NSCLC
MOLT-4 leukemia = system: MOLT-4 leukemia
COLO 205 colon = system: COLO 205 colon
HCT-116 colon = system: HCT-116 colon
LOX IMVI melanoma = system: LOX IMVI melanoma
KM12 colon = system: KM12 colon
EKVX NSCLC = system: EKVX NSCLC
SK-MEL-5 melanoma = system: SK-MEL-5 melanoma
CAKI-1 renal = system: CAKI-1 renal
SF-295 CNS = system: SF-295 CNS
NCI/ADR-RES ovarian = system: NCI/ADR-RES ovarian
OVCAR-4 ovarian = system: OVCAR-4 ovarian
HOP-62 NSCLC = system: HOP-62 NSCLC
SK-OV-3 ovarian = system: SK-OV-3 ovarian
SF-268 CNS = system: SF-268 CNS
IGROV1 ovarian = system: IGROV1 ovarian
MCF7 breast = system: MCF7 breast
A498 renal = system: A498 renal
MDA-MB-231 breast = system: MDA-MB-231 breast
ACHN renal = system: ACHN renal
OVCAR-5 ovarian = system: OVCAR-5 ovarian
MALME-3M melanoma = system: MALME-3M melanoma
SN12C renal = system: SN12C renal
SW-620 colon = system: SW-620 colon
TK-10 renal = system: TK-10 renal
CCRF-CEM leukemia = system: CCRF-CEM leukemia
SR leukemia = system: SR leukemia
HS 578T breast = system: HS 578T breast
MDA-N = system: MDA-N
M14 melanoma = system: M14 melanoma
MDA-MB-435 = system: MDA-MB-435
UACC-257 melanoma = system: UACC-257 melanoma
SF-539 CNS = system: SF-539 CNS
HL-60(TB) leukemia = system: HL-60(TB) leukemia
HCC-2998 colon = system: HCC-2998 colon

CN(C(=O)Nc1ccc(Cl)c(Cl)c1)C1CCCC[C@@H]1N1CCCC1 (some centres undefined)
TGI (RXF 393 renal): > 100 µM | TGI (RPMI-8226 leukemia): 64.1 µM | TGI (UO-31 renal): 84.2 µM | TGI (SK-MEL-28 melanoma): 47.6 µM | TGI (SNB-19 CNS): > 100 µM | TGI (SNB-75 CNS): > 100 µM | TGI (NCI-H23 lung): > 100 µM | TGI (NCI-H460 lung): > 100 µM | TGI (OVCAR-8 ovarian): > 100 µM | TGI (HT29 colon): > 100 µM | TGI (OVCAR-3 ovarian): > 100 µM | TGI (A549 NSCLC): > 100 µM | TGI (K-562 leukemia): > 100 µM | TGI (UACC-62 melanoma): 40.2 µM | TGI (PC-3 prostate): > 100 µM | TGI (HCT-15 colon): > 100 µM | TGI (U251 CNS): > 100 µM | TGI (DU-145 prostate): > 100 µM | TGI (T-47D breast): > 100 µM | TGI (NCI-H226 lung): 39.5 µM | TGI (786-0 renal): > 100 µM | TGI (NCI-H522 lung): > 100 µM | TGI (SK-MEL-2 melanoma): > 100 µM | TGI (BT-549 breast): > 100 µM | TGI (HOP-92 NSCLC): > 100 µM | TGI (MOLT-4 leukemia): 96.8 µM | TGI (COLO 205 colon): 35.7 µM | TGI (HCT-116 colon): > 100 µM | TGI (LOX IMVI melanoma): > 100 µM | TGI (KM12 colon): > 100 µM | TGI (EKVX NSCLC): > 100 µM | TGI (SK-MEL-5 melanoma): 30.6 µM | TGI (CAKI-1 renal): > 100 µM | TGI (SF-295 CNS): > 100 µM | TGI (NCI/ADR-RES ovarian): > 100 µM | TGI (OVCAR-4 ovarian): > 100 µM | TGI (HOP-62 NSCLC): > 100 µM | TGI (SK-OV-3 ovarian): > 100 µM | TGI (SF-268 CNS): 94.7 µM | TGI (IGROV1 ovarian): > 100 µM | TGI (MCF7 breast): 87.4 µM | TGI (A498 renal): 55.9 µM | TGI (MDA-MB-231 breast): > 100 µM | TGI (ACHN renal): > 100 µM | TGI (OVCAR-5 ovarian): > 100 µM | TGI (MALME-3M melanoma): 37.8 µM | TGI (SN12C renal): > 100 µM | TGI (SW-620 colon): > 100 µM | TGI (TK-10 renal): > 100 µM | TGI (CCRF-CEM leukemia): > 100 µM | TGI (SR leukemia): > 100 µM | TGI (HS 578T breast): 73.9 µM | TGI (MDA-N): > 100 µM | TGI (M14 melanoma): 36.1 µM | TGI (MDA-MB-435): > 100 µM | TGI (UACC-257 melanoma): 39.4 µM

CN1CCN(c2ccc3[nH]c(C4=C(O)c5nc(CCl)n(C)c5C(=O)C4=O)nc3n2)CC1
GI50 (RXF 393 renal): 3.49 µM | TGI (RXF 393 renal): 9.92 µM and 16.6 µM | GI50 (RPMI-8226 leukemia): 3.14 µM | TGI (RPMI-8226 leukemia): 50 µM and 15.2 µM | GI50 (SF-539 CNS): 2.17 µM | GI50 (UO-31 renal): 21.8 µM | TGI (UO-31 renal): 13.3 µM and > 100 µM | GI50 (SK-MEL-28 melanoma): 16.1 µM | TGI (SK-MEL-28 melanoma): 50 µM and 34.8 µM | GI50 (SNB-19 CNS): 11.8 µM | TGI (SNB-19 CNS): 16.7 µM and 32.6 µM | TGI (SNB-75 CNS): 18 µM | GI50 (HL-60(TB) leukemia): 2.87 µM | TGI (HL-60(TB) leukemia): > 50 µM and 8.97 µM | GI50 (NCI-H23 lung): 18.9 µM | TGI (NCI-H23 lung): 30.4 µM and 44.3 µM | TGI (NCI-H460 lung): 49.3 µM | GI50 (OVCAR-8 ovarian): 4.83 µM | TGI (OVCAR-8 ovarian): 16.2 µM and 29.2 µM | GI50 (HT29 colon): 13.7 µM | TGI (HT29 colon): 25.9 µM and 37.1 µM | TGI (OVCAR-3 ovarian): 31.3 µM and 68.6 µM | TGI (A549 NSCLC): 50 µM and > 100 µM | GI50 (K-562 leukemia): 2.84 µM | TGI (K-562 leukemia): 50 µM and > 100 µM | GI50 (UACC-62 melanoma): 2.46 µM | TGI (UACC-62 melanoma): 19.4 µM and 7.37 µM | GI50 (PC-3 prostate): 11.7 µM | TGI (PC-3 prostate): 50 µM and 29.1 µM | TGI (HCT-15 colon): 50 µM and > 100 µM | GI50 (U251 CNS): 2.03 µM | TGI (U251 CNS): 16.3 µM and 4.12 µM | GI50 (DU-145 prostate): 21.9 µM | TGI (DU-145 prostate): 22.4 µM and 67 µM | GI50 (T-47D breast): 2.15 µM | TGI (T-47D breast): 3.99 µM and 6.95 µM | TGI (HCC-2998 colon): 21.4 µM | GI50 (NCI-H226 lung): 18.3 µM | TGI (NCI-H226 lung): 36.2 µM and 37.7 µM | GI50 (786-0 renal): 6.05 µM | TGI (786-0 renal): 50 µM and > 100 µM | GI50 (NCI-H522 lung): 3.54 µM | TGI (NCI-H522 lung): 3.29 µM and 12.2 µM | TGI (SK-MEL-2 melanoma): 23.5 µM | GI50 (BT-549 breast): 17.4 µM | TGI (BT-549 breast): 19.3 µM and 40.4 µM | GI50 (MOLT-4 leukemia): 2.25 µM | TGI (MOLT-4 leukemia): 50 µM and 7.68 µM | GI50 (COLO 205 colon): 1.79 µM | TGI (COLO 205 colon): 28.1 µM and 3.62 µM | GI50 (HCT-116 colon): 15.2 µM | TGI (HCT-116 colon): 16.1 µM and > 100 µM | GI50 (LOX IMVI melanoma): 3.07 µM | TGI (LOX IMVI melanoma): 15.2 µM and 7.43 µM | GI50 (KM12 colon): 15.9 µM | TGI (KM12 colon): 21 µM and 35.9 µM | GI50 (EKVX NSCLC): 15.9 µM | TGI (EKVX NSCLC): 36.9 µM and 40.1 µM | TGI (SK-MEL-5 melanoma): 50 µM | GI50 (CAKI-1 renal): 24.2 µM | TGI (CAKI-1 renal): 37.1 µM and 74.4 µM | GI50 (SF-295 CNS): 24 µM | TGI (SF-295 CNS): 50 µM and 56.3 µM | GI50 (NCI/ADR-RES ovarian): 88.6 µM | TGI (NCI/ADR-RES ovarian): > 100 µM | TGI (OVCAR-4 ovarian): 44.7 µM and 33.7 µM | GI50 (HOP-62 NSCLC): 20.7 µM | TGI (HOP-62 NSCLC): 19.7 µM and 53.5 µM | GI50 (SK-OV-3 ovarian): 19.8 µM | TGI (SK-OV-3 ovarian): 50 µM and 51.6 µM | TGI (SF-268 CNS): 49.1 µM | GI50 (IGROV1 ovarian): 24.5 µM | TGI (IGROV1 ovarian): 16 µM and 47.9 µM | TGI (MCF7 breast): 18.5 µM | TGI (A498 renal): 22.1 µM | GI50 (MDA-MB-231 breast): 3.99 µM | TGI (MDA-MB-231 breast): 25 µM and 14.8 µM | GI50 (ACHN renal): 5.13 µM | TGI (ACHN renal): 30.7 µM and 43.1 µM | GI50 (OVCAR-5 ovarian): 20 µM | TGI (OVCAR-5 ovarian): 34.5 µM and 52.7 µM | GI50 (MALME-3M melanoma): 13 µM | TGI (MALME-3M melanoma): 11.4 µM and 30 µM | GI50 (SN12C renal): 16.9 µM | TGI (SN12C renal): 20.5 µM and > 100 µM | GI50 (SW-620 colon): 3.61 µM | TGI (SW-620 colon): 50 µM and > 100 µM | GI50 (CCRF-CEM leukemia): 15 µM | TGI (CCRF-CEM leukemia): > 50 µM and 36.4 µM | TGI (SR leukemia): 50 µM | TGI (HS 578T breast): 75.5 µM | GI50 (MDA-N): 26.5 µM | TGI (MDA-N): 17.4 µM and > 100 µM | GI50 (M14 melanoma): 19.6 µM | TGI (M14 melanoma): 20.1 µM and 52.2 µM | GI50 (MDA-MB-435): 12.6 µM | TGI (MDA-MB-435): 19.3 µM and 30.8 µM | TGI (UACC-257 melanoma): 31.9 µM
